Reference: US20240122929A1, “BODY TEMPERATURE LOWERING AGENT, BODY TEMPERATURE ELEVATION SUPPRESSOR, FOOD COMPOSITION FOR LOWERING BODY TEMPERATURE,AND FOOD COMPOSITION FOR SUPPRESSING BODY TEMPERATURE ELEVATION” (University of Tsukuba, priority 2021, published 2024)

Tests used:
male Wistar rat [1] = experiment: Effect of orotic acid on core body temperature at rest (telemetry, breath gas analysis, spontaneous activity); type: in vivo
From the text: The body temperature lowering action of the body temperature lowering agent according to the embodiment of the present invention can be measured by a method for measuring the core body temperature at rest. The core body temperature at rest can be measured in accordance with a known method, for example, the method described in an article of Takahashi et al. (Nature 583: 109-114, 2020) and the like. Specifically, the measurement can be performed in the following manner. The core body temperature at rest is measured using a TRM54P Rat Telemetry System (available from KAHA Sciences) and SmartPad (TR181: available from KAHA Sciences) and quantified. The main body of TRM54P Rat Telemetry System is indwelled in the abdominal cavity of a test animal for measurement. All experiments are performed in the light phase, and on the day of the experiments, a rat is fasted 2 hours before start of the test to eliminate the effect of food-induced heat production. After the core body temperature at rest is measured for 20 minutes, a drug (orotic acids) or vehicle is intraperitoneally administered, and the core body temperature is measured for 120 minutes. In a case where the core body temperature at rest is lowered as compared with a case where orotic acids are not administered, it can be determined that the orotic acids have a body temperature lowering action. A 10-week-old male Wistar rat was used, and a one-week preliminary breeding period was provided before the day of an experiment. During the experiment, room temperature was maintained at 22±2° C. After the preliminary breeding, a telemetry (TRM54P, available from KAHA Sciences) for measuring the body temperature was indwelled in the abdominal cavity, and a recovery period and an acclimation period were provided for one week each. 300 mg/kg orotic acid, 30 mg/kg orotic acid, or a vehicle (1% carboxymethyl cellulose) was intraperitoneally administered to examine the effect on the core body temperature at rest. In addition to the core body temperature and a heart rate, an oxygen/carbon dioxide intake was measured using a breath gas analyzer (trade name: Oxymax, available from Columbus Instruments) to calculate a respiratory exchange ratio (also referred to as RER) and an amount of heat production. In addition, the amount of spontaneous activity was measured using an infrared beam sensor (trade name: beam sensor type spontaneous activity amount measuring device, available from Panlab). Note that in the experiment, the rat was placed under fasting for 2 hours before the start of the experiment, and the core body temperature at rest was measured for 20 minutes. Thereafter, the orotic acid or vehicle was intraperitoneally administered, and the measurement was performed until 2 hours later. The orotic acid was used in a free form.

rat = conditions: orotic acid administered to a rat, Non-Patent Document 2; cited from earlier work
male Wistar rat [2] = experiment: Effect of orotic acid on core body temperature during treadmill exercise; type: in vivo; conditions: treadmill 20 m/min for 30 minutes
From the text: The body temperature elevation suppressing action of the body temperature elevation suppressor according to the embodiment of the present invention can be measured by a method for measuring the core body temperature during exercise. The core body temperature during exercise can be measured in accordance with a known method, for example, a method described in the article by Takahashi et al. (Nature 583: 109-114, 2020) and the like. Specifically, the measurement can be performed in the following manner. A rat is placed in a treadmill metabolism chamber for small animals having an inclination of 10°, and after measuring the core body temperature at rest for 20 minutes, a single dose of a drug (orotic acids) is administered intraperitoneally. After the administration, the rat is left in a rest state for 15 minutes, and then exercise is started. The exercise is started at a running speed of 5 m/min, the running speed is increased to 20 m/min over 5 minutes, and the core body temperature is measured in the same manner as the method for measuring the core body temperature at rest. In a case where the core body temperature elevation during exercise is suppressed as compared with a case where the orotic acids are not administered, it can be determined that the orotic acids have the body temperature elevation suppressing action. A 10-week-old male Wistar rat was used, and a one-week preliminary breeding period was provided before the day of an experiment. During the experiment, room temperature was maintained at 22±2° C. After the preliminary breeding, a telemetry (trade name: TRM54P, available from KAHA Sciences) for measuring the body temperature was indwelled in the abdominal cavity, and a running test was performed after a recovery period of one week. Note that in the experiment, after 300 mg/kg orotic acid or a vehicle (physiological saline) was intraperitoneally administered in a rest state, treadmill exercise (20 m/min) was performed for 30 minutes, and the measurement was performed until 1 hour after the end of the exercise. The measurement items were core body temperature, a blood pressure, a heart rate, and breath gas metabolism. From the obtained oxygen/carbon dioxide intake, exercise economy was calculated. The orotic acid was used in a free form.

SMILES: O=C(O)c1cc(=O)[nH]c(=O)[nH]1 [orotic acid]
- amount of spontaneous activity at rest (male Wistar rat [1]; 30 mg/kg and 300 mg/kg intraperitoneal vs vehicle, infrared beam sensor, FIG. 4): no difference between the groups
- core body temperature at rest, dose dependence (male Wistar rat [1]; 30 mg/kg and 300 mg/kg intraperitoneal, FIG. 1): decreased in a concentration dependent manner
- heart rate at rest (male Wistar rat [1]; 30 mg/kg and 300 mg/kg intraperitoneal, FIG. 2): did not fluctuate
- core body temperature at rest (male Wistar rat [1]; 300 mg/kg intraperitoneal, vs vehicle (1% carboxymethyl cellulose), measured until 2 hours after administration, FIG. 1): significantly decreased
- amount of heat production at rest (male Wistar rat [1]; 300 mg/kg intraperitoneal, vs vehicle, breath gas analyzer, FIG. 3): significantly decreased
- contraction phase, diastole phase and mean blood pressure at rest (male Wistar rat [1]; orotic acid administered groups (30 and 300 mg/kg intraperitoneal), data not shown): significantly increased
- body temperature (rat): not lowered
- exercise economy (male Wistar rat [2]; 300 mg/kg intraperitoneal vs vehicle (physiological saline), FIG. 8): increased
- excessive core body temperature elevation during exercise (male Wistar rat [2]; 300 mg/kg intraperitoneal vs vehicle, FIG. 5): suppressed
- heart rate during exercise (male Wistar rat [2]; 300 mg/kg intraperitoneal vs vehicle, FIG. 6): significantly decreased
- amount of heat production during exercise (male Wistar rat [2]; 300 mg/kg intraperitoneal vs vehicle, FIG. 7): lowered
